Values of other authors as cited in patent publication US20250207102A1, “METHODS FOR CO-CULTURING GENOTOXIC BACTERIA AND ORGANOIDS” (priority 2022, published 2025).

Question: What does the source list for Cc1cccc(-c2nn(C(=S)Nc3ccccc3)cc2-c2ccnc3ccccc23)n1 [A83-01]?
Answer: inhibition of ALK-1,-2,-3,-6 and MAPK activity (ALK-1,-2,-3,-6 and MAPK): only weakly inhibits; phosphorylation of Smad2 (Smad2): blocks phosphorylation of Smad2
